Assay results as given in US20220339094A1, “NOVEL SKIN CARE COMPOSITION” (BEIERSDORF AG, priority 2019, published 2022).

Tests used:
C. acnes strain C3 = test: Minimum inhibitory concentration (MIC) of cosmetic excipients, strain C3; format: cell-based, Cutibacterium acnes; settings: % w/vol, anaerobic 3 days at 37° C, visual growth scoring
Description: (§1) In microbiology, the MIC is the lowest concentration of a chemical which prevents visible growth of bacterium. The resulted MIC value depends both on the microorganism and the test compound. The MIC is determined by preparing concentrations series of the test compound in vitro, incubating the solutions with the separate batches of cultured bacteria, and measuring the results using agar dilution or broth microdilution. For the experiments with C. acnes strains C3 and K8, media comprising yeast extract soy peptone and dextrose were used. The MIC is determined by turbidity.
(§2) A total of 125 cosmetic excipients were tested for their compatibility with C. acnes strains C3 and K8. Hydrophilic compounds were tested in a 96-well plate liquid broth format, poorly soluble compounds were pre-dissolved in DMSO before dilution in liquid broth and hydrophobic or solid compounds were tested in an agar well diffusion test assay. The different dilutions of the test excipients in media were prepared in Falcon tubes and then distributed in a deep well plate using a multistepper. Each well received 1.2 ml and was subsequently inoculated with 120 μl of C. acnes bacteria suspension (strain C3 and K8). From the deep well plate 200 μl were transferred in each well of a clear 96 well replicate plate. The leftover was discarded. The plates were then incubated anaerobically for 3 days at 37° C. Following incubation, the test plates were visually examined and wells were scored for growth or complete growth inhibition to define the minimum inhibitory concentration.
(§3) These excipients are listed in the below table with their compatibility values for C. acnes strains C3 and K8. The compatibility values represent the MIC value of the listed ingredients with the tested C. acnes strains. At this concentration [% w/vol] the tested compound starts interfering with the growth of the tested strains. The compounds can be used in formulations at concentrations below this concentration.

C. acnes strain K8 = test: Minimum inhibitory concentration (MIC) of cosmetic excipients, strain K8; format: cell-based, Cutibacterium acnes; settings: % w/vol, anaerobic 3 days at 37° C, visual growth scoring
Description: as §1, §2, §3

Molecule | COMPATABILITY VALUE C3 (MIC) (C. acnes strain C3) | COMPATABILITY VALUE K8 (MIC) (C. acnes strain K8)
CCCCCCC(O)CO (stereo not drawn) [caprylyl glycol] | 0.18% | 0.18%
CC(=O)Oc1c(C)c(C)c2c(c1C)CCC(C)(CCC[C@H](C)CCC[C@H](C)CCCC(C)C)O2 (stereo partly drawn) [tocopheryl acetate] | – | 1.00%
CC(CO)CO [methylpropanediol] | 4.00% | 4.00%
tocopherol | 1.50% | 1.50%
O=C(O)CC(O)(CC(=O)O)C(=O)O [citric acid] | – | 0.08%
ethylhexyl cocoate | 10.00% | 10.00%
peg-40 hydrogenated castor oil | 1.00% | 1.00%
